Literature values as cited in patent EP0072762B1, “Fluorinated diaminoalkene derivatives” (priority 1981, dated 1983).

Tested on: tumor
Conditions: administered intravenously once or twice a week, cited from earlier work

CC(C=NNC(=N)N)=NNC(=N)N [MGBG, methylglyoxal bis(guanylhydrazone)]
complete disappearance of the diseases (65 treated patients): two of the 65 treated patients | regression of the tumor (patients in advanced stages of various carcinomas, lymphoma, leukemia etc.): measurable regression of the tumor in many of the patients treated
